Values of other authors in patent US20260069593A1, “METHODS FOR TREATING CANCER” (AMGEN INC., priority 2022, published 2026).

System: extracellular signal-regulated kinase (ERK)
Settings: preclinical studies

**Q.** For `C=CC(=O)N1CCN(c2nc(=O)n(-c3c(C)ccnc3C(C)C)c3nc(-c4c(O)cccc4F)c(F)cc23)[C@@H](C)C1` (atropisomer, axis not shown; (M)) [sotorasib, 6-fluoro-7-(2-fluoro-6-hydroxyphenyl)-(1M)-1-[4-methyl-2-(propan-2-yl)pyridin-3-yl]-4-[(2S)-2-methyl-4-(prop-2-enoyl)piperazin-1-yl]pyrido[2,3-d]pyrimidin-2(1H)-one], which “phosphorylation of extracellular signal-regulated kinase (ERK)” value is on record?
**A.** The value was “inhibited nearly all detectable phosphorylation of extracellular signal-regulated kinase (ERK)”.
